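Protocol summary: plate cells (96-well), add compound at 5 concentrations, incubate 48 h, interpolate endpoints linearly. Abbreviation: GI50, concentration required for 50% inhibition of growth. The concentration for full growth arrest is given as TGI.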
Columns and labels:
Assay in all cases: growth of human tumour cells (NCI), 48 h
786-0 renal = system: 786-0 renal
SF-539 CNS = system: SF-539 CNS
OVCAR-3 ovarian = system: OVCAR-3 ovarian
COLO 205 colon = system: COLO 205 colon
HCT-15 colon = system: HCT-15 colon
NCI-H460 lung = system: NCI-H460 lung
NCI/ADR-RES ovarian = system: NCI/ADR-RES ovarian
DU-145 prostate = system: DU-145 prostate
HL-60(TB) leukemia = system: HL-60(TB) leukemia
CCRF-CEM leukemia = system: CCRF-CEM leukemia

| Compound | TGI (786-0 renal) [µM] | TGI (SF-539 CNS) [µM] | TGI (OVCAR-3 ovarian) [µM] | TGI (COLO 205 colon) [µM] | TGI (HCT-15 colon) [µM] | TGI (NCI-H460 lung) [µM] | TGI (NCI/ADR-RES ovarian) [µM] | TGI (DU-145 prostate) [µM] | TGI (HL-60(TB) leukemia) [µM] | TGI (CCRF-CEM leukemia) [µM] | GI50 (NCI/ADR-RES ovarian) [µM] | GI50 (SF-539 CNS) [µM] | GI50 (OVCAR-3 ovarian) [µM] | GI50 (CCRF-CEM leukemia) [µM] | GI50 (DU-145 prostate) [µM] | GI50 (COLO 205 colon) [µM] | GI50 (HL-60(TB) leukemia) [µM] | GI50 (HCT-15 colon) [µM] | GI50 (NCI-H460 lung) [µM] |
| --- | --- | --- | --- | --- | --- | --- | --- | --- | --- | --- | --- | --- | --- | --- | --- | --- | --- | --- | --- |
| CC1=NN(C(=O)CC(=O)Nc2cccc(Cl)c2)C(=O)C1N=Nc1ccc(S(N)(=O)=O)cc1 (centres undefined) | > 100 | > 100 | > 100 | > 100 | > 100 | > 100 |  |  |  |  |  |  |  |  |  |  |  |  |  |
| COc1cc(C2SCC(=O)N2NC(=O)c2ccc(NC(C)=O)cc2)cc(OC)c1OC (centres undefined) | > 100 | > 100 | > 100 | > 100 | > 100 | > 100 | > 100 | > 100 | > 100 |  |  |  |  |  |  |  |  |  |  |
| C#CC(C)(C)Oc1cc(OC)c2c(=O)c3ccccc3n(C)c2c1 | > 100 | 76 |  | 33.7 | 44.5 | 36 | 83.4 | 55.8 | 28.7 | 27.5 |  |  |  |  |  |  |  |  |  |
| c1ccc2c3c(ccc2c1)CSCc1ccc2ccccc2c1-3 | > 100 | > 100 | > 100 | > 100 | > 100 |  | > 100 | > 100 |  | > 100 |  |  |  |  |  |  |  |  |  |
| Cc1ncc([N+](=O)[O-])n1CCN=[N+]=[N-] | > 100 | > 100 | > 100 | > 100 | > 100 | > 100 | > 100 | > 100 |  |  |  |  |  |  |  |  |  |  |  |
| CCCCCCCCCCCCOC1C(COCCN2CCCC2)OC2OC(C)(C)OC21 (centres undefined) | 3.08 | 3.17 | 3.05 | 3.22 | 3.17 |  | 4.37 | 23.1 |  | 5.39 |  |  |  |  |  |  |  |  |  |
| O=C(c1cccs1)N(C(=S)N1CCN(c2ccccc2)CC1)c1ccccc1 | > 100 | > 100 | > 100 | > 100 | > 100 | > 100 |  |  | > 100 | > 100 |  |  |  |  |  |  |  |  |  |
| CCOC(=O)C1C/C(C)=C(/C)SCCCS1 (centres undefined) | > 100 | > 100 | > 100 | > 100 | > 100 | > 100 | > 100 | > 100 | 54.6 |  |  |  |  |  |  |  |  |  |  |
| COc1ccccc1C1C(C#N)=C(N)OC2=C1C(=O)CCC2 (centres undefined) |  | > 100 | > 100 | > 100 | > 100 | > 100 | > 100 | > 100 | > 100 | > 100 | > 100 | > 100 | > 100 | 59.2 | > 100 | > 100 | > 100 | > 100 | > 100 |
| O=[N+]([O-])c1ccc2nc3ccc([N+](=O)[O-])cn3c2c1 | > 100 | > 100 |  | > 100 | > 100 | > 100 | > 100 | > 100 | > 100 | > 100 |  |  |  |  |  |  |  |  |  |
| Cn1c(N)c(/C=N/NC(=O)CC#N)c(=O)n(C)c1=O | > 100 |  | > 100 | > 100 | > 100 | > 100 | > 100 | > 100 |  | > 100 |  |  |  |  |  |  |  |  |  |
| O=C1c2cc(Cl)ccc2-n2c(noc2=O)C2CSCN12 (centres undefined) | > 100 |  | > 100 | > 100 | > 100 | > 100 | > 100 | > 100 |  | > 100 |  |  |  |  |  |  |  |  |  |
| N#Cc1c(N)c(-c2ccc(Cl)cc2)c(F)c2ccccc12 | > 100 | > 100 | > 100 | > 100 | > 100 | > 100 | > 100 |  |  |  |  |  |  |  |  |  |  |  |  |
| CC1(C)CC(=O)C(/C=N/c2nc(-c3ccc(Br)cc3)cs2)=C(O)C1 | > 100 | 61 | 62.1 | 99.2 | 49.7 | > 100 | > 100 | > 100 | > 100 |  |  |  |  |  |  |  |  |  |  |
| O=C1CSC2(CC(/C=C/C=C/c3ccccc3)=NN2c2cccc(S(=O)(=O)O)c2)N1c1nc2ccccc2s1 (centres undefined) | > 100 | > 100 |  | > 100 | > 100 | > 100 | > 100 |  | > 100 | 58.4 |  |  |  |  |  |  |  |  |  |
| c1ccc(C2=NN3CN(N2)c2ccccc2OCCCOc2ccccc23)cc1 | > 100 | > 100 | > 100 | > 100 | > 100 | > 100 |  |  | > 100 | > 100 |  |  |  |  |  |  |  |  |  |
| CN(C)c1ccc(-c2nc(-c3cc4c(ccc5ccccc54)oc3=O)cs2)cc1 | > 100 | > 100 |  | > 100 | > 100 | > 100 | > 100 | > 100 | > 100 | > 100 |  |  |  |  |  |  |  |  |  |
| COC(=O)C12CC(C3CC31)C1CC12 (centres undefined) | > 100 |  | > 100 | > 100 | > 100 | > 100 |  |  | > 100 | > 100 |  |  |  |  |  |  |  |  |  |
| Oc1ccc(-c2c3c(nc4c2CCc2ccc(Br)cc2-4)-c2cc(Br)ccc2CC3)cc1 | 37.4 |  | 29.5 | 32.4 | 35.5 | 53.2 | 46 | 59.5 |  |  |  |  |  |  |  |  |  |  |  |
| Cc1cnc(Cl)nc1C(C#N)c1nc2ccccc2n1C (centres undefined) | > 100 | 71.3 | > 100 | > 100 | > 100 | > 100 | > 100 | > 100 |  |  |  |  |  |  |  |  |  |  |  |
| O=C1/C(=C/c2cccc(Oc3ccccc3)c2)N=C(c2ccccc2)N1c1nc2ccc(Sc3ccccc3)cc2[nH]1 | > 100 |  | 47.7 | 31.5 | > 100 | 64 | 50.4 | > 100 | 49.9 | > 100 |  |  |  |  |  |  |  |  |  |
| C=C(CCOC)CCC1CCCCC(=C)C1=O (centres undefined) | > 100 |  | > 100 | > 100 | > 100 | > 100 | > 100 | > 100 | > 100 | > 100 |  |  |  |  |  |  |  |  |  |

Reference: PubChem BioAssay (NCI)
